According to patent US20120040955A1 (priority 2009, published 2012):

Key:
[1] = Changelian et al., 2003; cited from earlier work
[2] = reviewed in Cetkovic-Cvrlje and Ucken, 2004; cited from earlier work
[3] = NOD mouse model of type I diabetes; cited from earlier work
JAK2 = biological target: T1, JAK2 (Homo sapiens, UniProt O60674); experiment: kinobeads assay (competition with affinity matrix in mixed Molt4/Ramos cell lysate, dot blot detection), JAK2; format: binding; conditions: activity level
T1 construct: endogenous in cells; host or cells: Mixed Molt4 / Ramos cell lysate (1:2)
T1 sequence (O60674 whole entry): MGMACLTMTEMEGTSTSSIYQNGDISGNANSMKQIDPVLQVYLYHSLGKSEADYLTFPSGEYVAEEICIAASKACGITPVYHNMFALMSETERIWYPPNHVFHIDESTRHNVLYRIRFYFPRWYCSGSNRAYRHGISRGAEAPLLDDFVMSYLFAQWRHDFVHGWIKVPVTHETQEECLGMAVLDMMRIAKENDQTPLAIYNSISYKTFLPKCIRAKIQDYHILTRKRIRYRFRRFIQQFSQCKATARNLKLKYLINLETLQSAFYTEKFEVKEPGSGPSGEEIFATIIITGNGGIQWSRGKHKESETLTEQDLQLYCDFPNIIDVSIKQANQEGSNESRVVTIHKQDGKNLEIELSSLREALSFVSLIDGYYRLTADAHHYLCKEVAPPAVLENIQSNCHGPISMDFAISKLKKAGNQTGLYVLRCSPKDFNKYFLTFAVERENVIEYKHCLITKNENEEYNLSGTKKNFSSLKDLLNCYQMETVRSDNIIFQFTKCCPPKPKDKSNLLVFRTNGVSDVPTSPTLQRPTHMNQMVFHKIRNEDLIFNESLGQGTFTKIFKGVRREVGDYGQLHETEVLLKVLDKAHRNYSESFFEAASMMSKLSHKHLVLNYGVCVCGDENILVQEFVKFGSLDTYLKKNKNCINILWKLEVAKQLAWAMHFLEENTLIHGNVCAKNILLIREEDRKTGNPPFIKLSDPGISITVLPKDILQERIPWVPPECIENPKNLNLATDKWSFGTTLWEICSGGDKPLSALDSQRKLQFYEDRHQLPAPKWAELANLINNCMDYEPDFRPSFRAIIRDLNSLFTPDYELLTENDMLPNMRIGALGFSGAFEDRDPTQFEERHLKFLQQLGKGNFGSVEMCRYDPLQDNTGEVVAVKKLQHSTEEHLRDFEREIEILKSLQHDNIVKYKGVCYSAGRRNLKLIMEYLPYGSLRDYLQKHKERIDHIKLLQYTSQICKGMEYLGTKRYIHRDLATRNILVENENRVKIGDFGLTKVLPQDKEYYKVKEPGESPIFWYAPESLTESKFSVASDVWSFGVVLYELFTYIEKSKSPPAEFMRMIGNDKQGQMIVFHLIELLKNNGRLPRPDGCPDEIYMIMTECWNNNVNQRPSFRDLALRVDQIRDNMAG
Experimental: (§1) The compounds of the present invention as described in the previous examples were tested in a kinobeads assay as described for ZAP-70 (WO-A 2007/137867). Briefly, test compounds (at various concentrations) and the affinity matrix with the immobilized aminopyrido-pyrimidine ligand 24 were added to cell lysate aliquots and allowed to bind to the proteins in the lysate sample. After the incubation time the beads with captured proteins were separated from the lysate. Bound proteins were then eluted and the presence of, JAK2 and JAK3 was detected and quantified using specific antibodies in a dot blot procedure and the Odyssey infrared detection system. Dose response curves for individual kinases were generated and IC50 values calculated. Kinobeads assays for ZAP-70 (WO-A 2007/137867) and for kinase selectivity profiling (WO-A 2006/134056) have been previously described.
(§2) 5× DP buffer: 250 mM Tris-HCl pH 7.4, 25% Glycerol, 7.5 mM MgCl2, 750 mM NaCl, 5 mM Na3VO4; filter the 5× DP buffer through a 0.22 μm filter and store in aliquots at −80° C. The 5× DP buffer is diluted with H2O to 1× DP buffer containing 1 mM DTT and 25 mM NaF.
(§3) Stock solutions of test compounds were prepared in DMSO. In a 96 well plate 30 μl solution of diluted test compounds at 5 mM in DMSO were prepared. Starting with this solution a 1:3 dilution series (9 steps) was prepared. For control experiments (no test compound) a buffer containing 2% DMSO was used.
(§4) Molt4 cells (ATCC catalogue number CRL-1582) and Ramos cells (ATCC catalogue number CRL-1596) were grown in 1 litre Spinner flasks (Integra Biosciences, #182101) in suspension in RPMI 1640 medium (Invitrogen, #21875-034) supplemented with 10% Fetal Bovine Serum (Invitrogen) at a density between 0.15×10^6 and 1.2×10^6 cells/ml. Cells were harvested by centrifugation, washed once with 1× PBS buffer (Invitrogen, #14190-094) and cell pellets were frozen in liquid nitrogen and subsequently stored at −80° C. Cells were homogenized in a Potter S homogenizer in lysis buffer: 50 mM Tris-HCl, 0.8% NP40, 5% glycerol, 150 mM NaCl, 1.5 mM MgCl2, 25 mM NaF, 1 mM sodium vanadate, 1 mM DTT, pH 7.5. One complete EDTA-free tablet (protease inhibitor cocktail, Roche Diagnostics, 1873580) per 25 ml buffer was added. The material was dounced 10 times using a mechanized POTTER S, transferred to 50 ml falcon tubes, incubated for 30 minutes on ice and spun down for 10 min at 20,000 g at 4° C. (10,000 rpm in Sorvall SLA600, precooled). The supernatant was transferred to an ultracentrifuge (UZ)-polycarbonate tube (Beckmann, 355654) and spun for 1 hour at 100.000 g at 4° C. (33.500 rpm in Ti50.2, precooled). The supernatant was transferred again to a fresh 50 ml falcon tube, the protein concentration was determined by a Bradford assay (BioRad) and samples containing 50 mg of protein per aliquot were prepared. The samples were immediately used for experiments or frozen in liquid nitrogen and stored frozen at −80° C.
(§5) Cell lysate (approximately 50 mg protein per plate) was thawed in a water bath at room temperature and then kept on ice. To the thawed cell lysate 1× DP 0.8% NP40 buffer containing protease inhibitors (1 tablet for 25 ml buffer; EDTA-free protease inhibitor cocktail; Roche Diagnostics 1873580) was added in order to reach a final protein concentration of 5 mg/ml total protein. The diluted cell lysate was stored on ice. Mixed Molt4/Ramos lysate was prepared by combining one volume of Molt4 lysate and two volumes of Ramos lysate (ratio 1:2).
(§6) To a 96 well filter plate (Multiscreen HTS, BV Filter Plates, Millipore #MSBVN1250) were added per well: 100 μl affinity matrix (3% beads slurry), 3 μl of compound solution, and 50 μl of diluted lysate. Plates were sealed and incubated for three hours in a cold room on a plate shaker (Heidolph tiramax 1000) at 750 rpm. Afterwards the plate was washed twice with 230 μl washing buffer (1× DP 0.4% NP40). […]

JAK3 = biological target: T2, JAK3 (Homo sapiens, UniProt P52333); experiment: kinobeads assay (competition with affinity matrix in mixed Molt4/Ramos cell lysate, dot blot detection), JAK3; format: binding; conditions: activity level
T2 construct: endogenous in cells; host or cells: Mixed Molt4 / Ramos cell lysate (1:2)
T2 sequence (P52333 1-1124): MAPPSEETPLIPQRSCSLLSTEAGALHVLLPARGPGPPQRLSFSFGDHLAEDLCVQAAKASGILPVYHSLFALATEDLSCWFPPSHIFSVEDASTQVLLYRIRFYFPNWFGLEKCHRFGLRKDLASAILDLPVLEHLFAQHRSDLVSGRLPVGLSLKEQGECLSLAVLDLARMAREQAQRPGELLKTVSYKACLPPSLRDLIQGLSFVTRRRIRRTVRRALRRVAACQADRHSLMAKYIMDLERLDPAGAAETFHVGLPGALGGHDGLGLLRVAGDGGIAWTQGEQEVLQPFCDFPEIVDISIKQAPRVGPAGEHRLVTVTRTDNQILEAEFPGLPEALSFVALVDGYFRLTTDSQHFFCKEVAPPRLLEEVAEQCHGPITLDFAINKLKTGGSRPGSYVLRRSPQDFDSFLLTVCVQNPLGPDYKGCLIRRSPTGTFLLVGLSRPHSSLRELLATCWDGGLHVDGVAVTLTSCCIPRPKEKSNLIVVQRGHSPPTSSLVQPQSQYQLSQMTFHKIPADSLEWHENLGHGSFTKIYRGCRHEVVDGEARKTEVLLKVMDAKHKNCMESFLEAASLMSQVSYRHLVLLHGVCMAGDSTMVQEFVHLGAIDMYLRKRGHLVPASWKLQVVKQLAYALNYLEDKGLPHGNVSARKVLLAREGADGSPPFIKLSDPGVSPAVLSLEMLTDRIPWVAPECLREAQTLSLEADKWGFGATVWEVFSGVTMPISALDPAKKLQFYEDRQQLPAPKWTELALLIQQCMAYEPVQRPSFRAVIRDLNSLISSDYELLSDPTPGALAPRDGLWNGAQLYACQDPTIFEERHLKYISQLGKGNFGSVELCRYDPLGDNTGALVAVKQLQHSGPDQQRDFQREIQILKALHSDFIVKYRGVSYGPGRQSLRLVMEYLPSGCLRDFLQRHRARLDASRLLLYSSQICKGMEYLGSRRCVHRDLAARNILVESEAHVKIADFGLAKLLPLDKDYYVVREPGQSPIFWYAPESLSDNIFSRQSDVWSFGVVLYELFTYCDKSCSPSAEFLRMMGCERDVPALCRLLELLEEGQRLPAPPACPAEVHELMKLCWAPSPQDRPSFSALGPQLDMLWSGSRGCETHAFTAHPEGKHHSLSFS
Experimental: as §1, §2, §3, §4, §5, §6

| IC50 (JAK2) [µM] | IC50 (JAK3) [µM] | Compound | efficacy in an animal model of organ transplantation [1] | severity of GVHD [2] | spontaneous autoimmune diabetes development [3] |
| --- | --- | --- | --- | --- | --- |
| 0.1 to 1 | < 0.1 | CS(=O)(=O)Nc1ccccc1Nc1nc(Nc2cc(-n3cnnn3)ccc2F)ncc1Cl [Example 7, N-(2-(5-chloro-2-(2-fluoro-5-(1H-tetrazol-1-yl)phenylamino)pyrimidin-4-ylamino)phenyl)methanesulfonamide] |  |  |  |
| > 10 | < 0.1 | CCNC(=O)c1ccc(Nc2ncc(Cl)c(Nc3cccc(F)c3NS(C)(=O)=O)n2)c(F)c1 [Example 60, 4-((5-chloro-4-((3-fluoro-2-(methylsulfonamido)phenyl)amino)pyrimidin-2-yl)amino)-N-ethyl-3-fluorobenzamide] |  |  |  |
| 1 to 10 | < 0.1 | CCNC(=O)c1ccc(Nc2ncc(Cl)c(Nc3ccccc3NS(C)(=O)=O)n2)c(F)c1 [Example 61, 4-((5-chloro-4-((2-(methylsulfonamido)phenyl)amino)pyrimidin-2-yl)amino)-N-ethyl-3-fluorobenzamide] |  |  |  |

More lines, now with the values behind:

| Compound | IC50 (JAK2) [µM] | IC50 (JAK3) [µM] | efficacy in an animal model of organ transplantation [1] | severity of GVHD [2] | spontaneous autoimmune diabetes development [3] |
| --- | --- | --- | --- | --- | --- |
| C[C@@H]1CCN(C(=O)CC#N)C[C@@H]1N(C)c1ncnc2[nH]ccc12 [CP-690,550] |  |  | show efficacy |  |  |
| COc1cc2ncnc(Nc3ccc(O)cc3)c2cc1OC [JANEX-1] |  |  |  | attenuate the severity of GVHD | prevent spontaneous autoimmune diabetes development |
| CNC(=O)c1ccc(F)c(Nc2ncc(Cl)c(Nc3cc(F)c(F)cc3NS(C)(=O)=O)n2)c1 [Example 63, 3-(5-chloro-4-(4,5-difluoro-2-(methylsulfonamido)phenylamino)pyrimidin-2-ylamino)-4-fluoro-N-methylbenzamide] | 1 to 10 | 0.1 to 1 |  |  |  |
